# Where two headings read alike, the source gives them in different places.
# How the values were obtained:
# [1] = biological target: T1, mitochondrial F1F0-ATPase (Bos taurus, UniProt P13621); assay: ATPase activity in sub-mitochondrial particles (SMPs); type: biochemical, bovine; conditions: 80 μM
# T1 construct: from tissue
# Source text: Oligomycin, a macrolide natural product that binds to the mitochondrial F1F0-ATPase, induces a state 3 to 4 transition and generates O2^− like Bz-423. Based on these similarities, it is possible that the F1F0-ATPase is also the molecular target for Bz-423. To test this hypothesis, the effect of Bz-423 on ATPase activity in sub-mitochondrial particles (SMPs) was examined.
# >40 derivatives of Bz-423 were developed to determine the elements on this novel agent required for biological activity. […] The potency of these analogues in cell based assays correlated with the ED50 values in ATPase inhibition experiments using SMPs.
# cells = type: cell-based
# human OSCP = biological target: T2, human OSCP (Homo sapiens, UniProt P48047); assay: Quenching of intrinsic OSCP fluorescence on titration (binding isotherm); conditions: Bz-Cl, binds less tightly
# T2 construct: made in house; host or cells: E. coli
# T2 sequence (P48047 24-213): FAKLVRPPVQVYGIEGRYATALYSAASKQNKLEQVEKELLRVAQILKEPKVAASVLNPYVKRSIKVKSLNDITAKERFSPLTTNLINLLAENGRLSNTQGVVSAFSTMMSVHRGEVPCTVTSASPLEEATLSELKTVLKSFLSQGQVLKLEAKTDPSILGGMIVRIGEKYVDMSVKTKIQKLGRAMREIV
# Source text: Oligomycin is a macrolide natural product that binds to the mitochondrial F1F0-ATPase, induces a state 3 to 4 transition, and as a result, generates ROS (e.g., O2^−). In preferred embodiments, the present invention binds the OSCP component of the mitochondrial F1F0-ATPase. In certain embodiments, screening assays of the present invention permit detection of binding partners of the OSCP. OSCP is an intrinsically fluorescent protein. In certain embodiments, titrating a solution of test compounds of the present invention into an E. Coli sample overexpressed with OSCP results in quenching of the intrinsic OSCP fluorescence. In other embodiments, fluorescent or radioactive test compounds can be used in direct binding assays. In other embodiments, competition binding experiments can be conducted. In this type of assay, test compounds are assessed for their ability to compete with Bz-423 for binding to the OSCP. In some embodiments, the compounds of the present invention cause a reduced increase in cellular ROS levels and reduced apoptosis in cells through regulation of the OSCP gene (e.g., altering expression of the OSCP gene). In further embodiments, the present invention functions by altering the molecular motions of the ATPase motor.
# To determine if Bz-423 indeed binds to the OSCP and the affinity of the interaction, human OSCP was overexpressed in E. coli. […]
# [2] = system: ornithine decarboxylase (ODC); assay: ODC activity in treated cells, conversion of 3H-ornithine to putrescine; type: cell-based; conditions: cells treated 4 h
# Description: In these experiments, the conversion of ornithine to putrescine was quantified using ^3H-ornithine. For comparisons, control cells were treated with vehicle control or difluoromethyl ornithine (DFMO), a potent inhibitor of ornithine decarboxylase (like Bz-423, DFMO is a potent anti-proliferative agent). […] The reduction in ODC activity was paralleled by a decrease in ODC protein levels measured under the same conditions.
# As described above, Bz-423 induced apoptosis was signaled by an ROS response that arose from MRC complex III as a result of the state 3 to 4 transition. It was next sought to determine if the ROS response, critical for apoptosis, also mediated these effects on ODC. If the ROS was required for the decrease in ODC activity, it would likewise be implicated as potentially part of the anti-proliferative response to Bz-423. To test this, Ramos cells were treated with Bz-423, DFMO, or vehicle control for 4 h. In parallel, a second group of cells was pre-incubated with MnTBAP to limit the ROS and then cultured with Bz-423, DFMO, and vehicle control.
# [3] = system: panel of cells in Table 2; assay: Antiproliferation against the panel of cells, 3 d; type: cell-based; conditions: after 3 d
# Ramos B cells [4] = assay: cells; type: cell-based, human
# Description: Cell viability is assessed by staining with propidium iodide (PI, 1 μg/mL). PI fluorescence is measured using a FACScalibur flow cytometer (Becton Dickinson, San Diego, Calif.). Measurement of hypodiploid DNA is conducted after incubating cells in DNA-labeling solution (50 μg/mL of PI in PBS containing 0.2% Triton and 10 μg/mL RNAse A) overnight at 4 degrees C. The data is analyzed using the CellQuest software excluding aggregates.
# Ramos B cells [5] = type: cell-based, human; conditions: micromolar FK506
# [6] = system: isolated rat liver mitochondria; assay: ROS production in isolated mitochondria (DCFH oxidation to DCF); type: biochemical
# Description: Male Long Evans rats are starved overnight and sacrificed by decapitation. Liver samples are homogenized in ice cold buffer A (250 mM sucrose, 10 mM Tris, 0.1 mM EGTA, pH 7.4), and nuclei and cellular debris are pelleted (10 min, 830 g, 4° C.). Mitochondria are collected by centrifugation (10 min, 15,000 g, 4° C.), and the supernatant is collected as the S15 fraction. The mitochondrial pellet is washed three times with buffer B (250 mM sucrose, 10 mM Tris, pH 7.4), and re-suspended in buffer B at 20–30 mg/mL. Mitochondria are diluted (0.5 mg/mL) in buffer C (200 mM sucrose, 10 mM Tris, pH 7.4, 1 mM KH2PO4, 10 μM EGTA, 2.5 μM rotenone, 5 mM succinate) containing 2′,7′-dichlorodihydrofluorescin diacetate (DCFH-DA, 1 μM). For state 3 measurements, ADP (2 mM) is included in the buffer, and prior to the addition of Bz-423, mitochondria are allowed to charge for 2 min. To induce state 4, oligomycin (10 μM) is added to buffer C. […] To detect effects on O2^− and delta ψm, mitochondria are incubated for 15 min at 37° C. in buffer C with vehicle, Bz-423, or CCCP containing DHE (5 μM) or DIOC6(3) (20 nM), and aliquots are removed for analysis by fluorescence microscopy.
# O2^− production by Bz-423 may result from binding to a protein within mitochondria or a target in another compartment that signals mitochondria to generate ROS. To distinguish between these alternatives, isolated rat liver mitochondria were assayed for ROS production by monitoring the oxidation of 2′,7′-dichlorodihydrofluorescin diacetate to of 2′,7′-dichlorofluorescin in the presence and absence of Bz-423. In this assay, the rate of DCF production increased after a lag period during which endogenous reducing equivalents were consumed and the acetate moieties on the probe were hydrolyzed to yield 2′,7′-dichlorodihydrofluorescin, the redox-active species.
# [7] = Ramos B cells, 24 h, propidium iodide exclusion, flow cytometry, error ±5%, read-out: EC50 (μM), cell death
compound,measurement,setting,value
"CN1C(=O)CN=C(c2ccc(Cl)cc2)c2cc(Cl)ccc21 [4-Cl-diazepam, 4-chlorodiazepam]",Inhibition of mitochondrial ATPase activity,[1],do not significantly inhibit
CN1C(=O)C(Cc2ccc3ccccc3c2)N=C(c2ccc(Cl)cc2)c2cc(Cl)ccc21 (centres unmarked) [Bz-Cl],Decrease of cytotoxic activity compared to Bz-423,cells,~80%
same,Kd,human OSCP,~5 µM
same,Effect on ODC activity,[2],inhibited ODC activity
same,Reduction of proliferation compared with Bz-423,[3],comparable ED50 values
CN1C(=O)CN=C(c2ccc(O)cc2)c2cc(Cl)ccc21 [Compound 1],EC50,Ramos B cells [4]; [7],> 80 µM
CN1C(=O)C(Cc2ccc3ccccc3c2)N=C(c2ccccc2)c2cc(Cl)ccc21 (centres unmarked) [Compound 2],EC50,Ramos B cells [4]; [7],> 80 µM
Cc1cc(C2=NC(Cc3ccc4ccccc4c3)C(=O)N(C)c3ccc(Cl)cc32)ccc1O (centres unmarked) [Compound 16],Cytotoxic potency compared with Bz-423,Ramos B cells [4],does not alter the activity
same,EC50,"Ramos B cells [4]; assessed as described in Table 1, read-out: EC50, cell death",3 µM
same,Inhibition of compound-induced cell death by FK506,Ramos B cells [5],≈ 60%
"CCC(C)N(C)C(=O)c1cc2ccccc2c(-c2ccccc2Cl)n1 (centres unmarked) [PK11195, reference compound]",EC50,"Ramos B cells [4]; Homo sapiens, Ramos B cells, 24 h, propidium iodide exclusion, flow cytometry, error ±5%, read-out: EC50 (μM), cell death",> 80 µM
same,Inhibition of mitochondrial ATPase activity,[1],do not significantly inhibit
antimycin A [reference compound],Increase in rate of ROS production versus control,"[6]; state 3 respiration, aerobic, after induction phase, slopes compared to control",nearly two-fold
same,ROS production in state 4 mitochondria,[6]; state 4 respiration,is active
